The target of this experiment is T1, renin (human plasma) (Homo sapiens, UniProt P00797).
T1 construct: from tissue; host or cells: human plasma
T1 sequence (P00797 67-406): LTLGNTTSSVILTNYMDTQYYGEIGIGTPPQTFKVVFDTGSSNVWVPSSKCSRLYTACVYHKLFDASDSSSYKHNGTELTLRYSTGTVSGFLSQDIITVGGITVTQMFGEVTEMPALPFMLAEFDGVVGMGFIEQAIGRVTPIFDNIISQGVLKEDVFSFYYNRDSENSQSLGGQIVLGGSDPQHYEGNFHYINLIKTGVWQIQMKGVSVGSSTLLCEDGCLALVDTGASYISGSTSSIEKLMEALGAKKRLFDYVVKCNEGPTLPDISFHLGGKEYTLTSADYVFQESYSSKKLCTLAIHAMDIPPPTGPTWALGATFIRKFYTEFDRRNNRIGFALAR
Nature of the experiment: Test example for renin inhibiting activities: angiotensin I formation in human plasma, measured by radio immunoassay. Particulars: 0.2M sodium phosphate buffer pH7.4, 37° C. for one hour, read-out: IC50 (mol), 50% inhibition concentration of renin inhibiting activity. Type of experiment: biochemical. How it is done: To 156 μl of a 0.2M sodium phosphate buffer solution (pH7.4), 40 μl of a solution mixture of 34 mM 8-hydroxyquinoline and 100 mM disodium ethylenediaminetetraacetate, 4 μl of dimethyl sulfoxide or a dimethyl sulfoxide solution of an inhibitor and 200 μl of human plasma were added and reacted at 37° C. for one hour. Then, pepstatin was added thereto to terminate the reaction, and the amount of the resulting angiotension I was measured by radio immunoassay whereby the inhibiting activity was determined.
Take `CCCCC(NC(=O)C(Cc1cccc2ccccc12)NC(=O)OCc1ccccc1)C(=O)N[C@@H](CC(C)C)[C@@H](O)CC(CCCO)C(=O)NCC(C)C` (mixture of isomers) [Example 14(8), (2RS,4S,5S)-5-(L-N-benzyloxycarbonylnaphthylalanyl-L-norleucyl)amino-4-hydroxy-2-(3-hydroxypropyl)-7-methyl-octanoic acid isobutylamide]: the IC50 was found to be 5 nM.

As for `CCCCC(NC(=O)C(Cc1cccc2ccccc12)NC(=O)OCc1ccccc1)C(=O)N[C@@H](CC(C)C)[C@@H](O)CC(C(=O)NCC(C)C)C(C)C` (mixture of isomers) [comparative compound, (2RS,4S,5S)-5-(L-N-benzyloxycarbonyl-naphthylalanyl-L-norleucyl)amino-4-hydroxy-2-isopropyl-7-methyl-octanoic acid isobutylamide, reference compound], the IC50 amounted to 40 nM.

Consider “(2RS,4S,5S)-5-(L-N-benzyloxycarbonylnaphthylalanyl-L-norleucyl)amino-4-hydroxy-2-(2-hydroxyethyl)-7-methyloctanoic acid isobutylamide [Example 15(3)]”, for which the IC50 came to 7 nM.

These data come from patent publication US4851387A, “5-substituted amino-4-hydroxy-pentanoic acid derivatives and their use” (Banyu Pharmaceutical Co., Ltd., priority 1986, dated 1989).
